These results are taken from US20140011773A1, “Pro-drug Compounds” (Proximagen Limited, priority 2012, published 2014).

A short description of data set [1]: Pharmacokinetics: plasma levels after intravenous dosing to rats. The conditions noted are these: male, Sprague Dawley, rat, 0.95 mg/kg IV, read-out: Plasma level of Example 2. The format is in vivo. On the procedure:
(§1) Example prodrugs were dosed either intravenously or orally to fasted male Sprague Dawley rats. The rats underwent surgery for jugular vein cannulation 48 hrs prior to dosing. Following dosing, 0.25 mL blood samples were taken via the cannulae at 0, 5, 10, 20, 30, 45, 60, 120, 240 & 360 minutes in EDTA coated tubes. Tubes were spun at 13,000 rpm for 4 minutes and 100 ul of supernatant taken immediately and stored at −80° C. prior to analysis. Plasma samples were analysed by LC-MS/MS following extraction by protein precipitation, and levels of parent prodrug and tonabersat were measured by MRM (Multiple Reaction Monitoring) analysis against an extracted calibration curve of plasma samples spiked with the Example prodrug and tonabersat.
Example 2 was dosed according to this protocol at 0.95 mg/kg IV. […] Plasma levels of tonabersat were determined to be 130 ng/mL at 5 min and 115 ng/mL at 6 hrs clearly showing conversion of the prodrug to tonabersat over this timecourse following intravenous dosing.

The nature of data set [2]: Pharmacokinetics: plasma levels after oral dosing to rats. The conditions noted are these: male, Sprague Dawley, 6.1 mg/kg, rat, 6.10 mg/kg PO, read-out: Plasma level of Example 2. The format is in vivo. On the procedure:
as §1
Example 2 was dosed according to this protocol at 6.10 mg/kg PO. […] Plasma levels of tonabersat were determined to be 63 ng/mL at 5 min and 900 ng/mL at 6 hrs clearly showing conversion of the prodrug to tonabersat over this timecourse following oral dosing.

Data set [3] deals with unique stereo-selective site in human brains. The conditions noted are these: human brain; cited from earlier work.
Data set [4] deals with high K+ evoked CSD. As to conditions: rats; cited from earlier work.
Data set [5] deals with high K+ evoked CSD. The conditions noted are these: cats; cited from earlier work.
For data set [6], the system named is unique stereo-selective site in rat brains. As to conditions: rat brain; cited from earlier work.

Structures are written as SMILES. Where a name gives a salt, the structure may show the parent alone. Read-outs that look alike come from different tables or passages of the source.

As to `CC(=O)c1ccc2c(c1)[C@H](NC(=O)c1ccc(F)c(Cl)c1)[C@H](OC(=O)CN(C)C)C(C)(C)O2` [Example 2, (3S,4S)-6-Acetyl-4-[(3-chloro-4-fluorobenzene)amido]-2,2-dimethyl-3,4-dihydro-2H-1-benzopyran-3-yl 2-(dimethylamino)acetate hydrochloride], the concentration at 5 min in data set [1] (at 5 min) worked out at 730 ng/mL; in data set [2] (at 5 min) it was 38 ng/mL. Besides, the concentration at 6 h in data set [1] (at 6 hrs) and in data set [2] (at 6 hrs) was under 5 ng/mL in each case.
Consider `CC(=O)c1ccc2c(c1)[C@H](NC(=O)c1ccc(F)c(Cl)c1)[C@H](O)C(C)(C)O2` [Tonabersat], for which the binding affinity entry was “binds selectively and with high affinity” in data set [3]; “binds selectively and with high affinity” in data set [6]. The “inhibition of high K+ evoked CSD” value in the data set with high K+ evoked CSD [4] and with high K+ evoked CSD [5] was “inhibits high K+ evoked CSD” throughout.
